IC50 data for 13 compounds are collected here from patent publication US9249140B2, “Bicyclic heteroaromatic compounds” (MERCK PATENT GMBH, priority 2011, dated 2016).

What all share (type): biochemical
The target of one assay is T1, PDK1 (Homo sapiens, UniProt O15530).
T1 construct: the PDK1 sample His6-PDK1(Δ1-50)(3.4 nM)
T1 sequence (O15530 51-556): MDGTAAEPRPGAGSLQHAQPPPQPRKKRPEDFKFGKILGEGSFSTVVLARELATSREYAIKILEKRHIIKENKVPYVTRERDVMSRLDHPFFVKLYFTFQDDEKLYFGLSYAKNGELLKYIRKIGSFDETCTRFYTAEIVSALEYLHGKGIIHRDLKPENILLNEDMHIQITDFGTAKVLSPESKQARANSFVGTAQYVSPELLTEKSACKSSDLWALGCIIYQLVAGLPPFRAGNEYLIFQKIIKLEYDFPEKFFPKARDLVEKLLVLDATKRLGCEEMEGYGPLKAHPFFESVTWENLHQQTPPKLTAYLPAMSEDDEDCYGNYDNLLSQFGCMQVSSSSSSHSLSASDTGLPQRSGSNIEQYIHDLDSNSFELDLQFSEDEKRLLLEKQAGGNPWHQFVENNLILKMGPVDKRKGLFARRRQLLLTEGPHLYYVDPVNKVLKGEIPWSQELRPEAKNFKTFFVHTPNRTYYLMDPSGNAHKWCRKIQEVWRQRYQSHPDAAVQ
Kind of assay: Test for the inhibition of PDK1, 384-well flashplate. To be noted: enzymatic; 4 μM ATP. How it is done: The experimental batches are carried out in a flashplate system with 384 wells/microtitration plate.
In each case, the PDK1 sample His6-PDK1(Δ1-50)(3.4 nM) (“His6” disclosed as SEQ ID NO: 4), the PDK1 substrate biotin-bA-bA-[…] (SEQ ID NO: 1) (400 nM), 4 μM ATP (with 0.2 μCi of 33P-ATP/well) and the test substance in 50 μl of conventional experimental solution per well are incubated at 30° C. for 60 min. The test substances are employed in corresponding concentrations (if desired in a dilution series). The control is carried out without test substance. The reaction is stopped using standard methods and washed. The activity of the kinase is measured via the incorporated radioactivity in top count. In order to determine the non-specific kinase reaction (blank value), the experimental batches are carried out in the presence of 100 nM staurosporine.
The radioactivity (decompositions per minute) of the blank value (no use of test substance in the presence of staurosporine) is subtracted from all other radioactivity values. The controls (kinase activity without test substance) are set equal to 100 percent and all other radioactivity values (after subtracting the blank value) are expressed set in relation thereto (for example in % of the control).

In a further assay the target is T2, IKKε (Homo sapiens, UniProt Q14164).
T2 construct: 1 nM IKKε, 800 nM biotinylated IκBα(19-42) peptide
T2 sequence (Q14164 1-716): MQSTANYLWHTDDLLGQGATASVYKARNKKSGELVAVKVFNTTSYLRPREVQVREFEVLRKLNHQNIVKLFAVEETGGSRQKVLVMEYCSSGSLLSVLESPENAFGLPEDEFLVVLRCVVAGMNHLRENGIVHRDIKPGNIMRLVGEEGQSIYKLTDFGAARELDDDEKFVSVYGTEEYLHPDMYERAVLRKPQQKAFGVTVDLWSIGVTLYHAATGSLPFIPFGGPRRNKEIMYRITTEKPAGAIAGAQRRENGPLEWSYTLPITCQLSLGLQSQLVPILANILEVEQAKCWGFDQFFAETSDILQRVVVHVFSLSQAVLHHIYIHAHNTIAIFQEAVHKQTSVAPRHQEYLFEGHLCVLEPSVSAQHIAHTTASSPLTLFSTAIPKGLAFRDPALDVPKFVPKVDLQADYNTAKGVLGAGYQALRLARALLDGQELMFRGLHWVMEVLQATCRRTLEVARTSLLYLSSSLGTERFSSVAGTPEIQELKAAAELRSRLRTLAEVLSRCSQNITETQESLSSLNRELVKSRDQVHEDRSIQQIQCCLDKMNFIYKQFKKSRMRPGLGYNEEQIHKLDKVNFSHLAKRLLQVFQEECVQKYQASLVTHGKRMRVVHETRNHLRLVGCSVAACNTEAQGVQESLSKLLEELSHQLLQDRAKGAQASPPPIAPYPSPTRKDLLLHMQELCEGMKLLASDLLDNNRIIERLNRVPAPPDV
Kind of assay: IKKε kinase test (IKKepsilon), 384-well flashplate. To be noted: enzymatic; 10 μM ATP; read-out: IKKe IC50 (enzymatic). How it is done:
The kinase assay is performed as 384-well flashplate assay. 1 nM IKKε, 800 nM biotinylated IκBα(19-42) peptide (biotin-C6-C6-[…] (SEQ ID NO: 2)) and 10 μM ATP (with 0.3 μCi of 33P-ATP/well) are incubated in a total volume of 50 μl (10 mM MOPS, 10 mM magnesium acetate, 0.1 mM EGTA, 1 mM dithiothreitol, 0.02% of Brij, 0.1% of BSA, 0.1% of BioStab, pH 7.5) with or without test substance at 30° C. for 120 min. The reaction is stopped using 25 μl of 200 mM EDTA solution, filtered off with suction after 30 min at room temperature, and the wells are 25 washed 3 times with 100 μl of 0.9% NaCl solution. The non-specific proportion of the kinase reaction (blank) is determined using 3 μM EMD 1126352 (BX-795). Radioactivity is measured in the Topcount. IC50 values are calculated using RS1.

Assay [1] deals with T3, TANK binding kinase (TBK1) (Homo sapiens, UniProt Q9UHD2).
T3 sequence (Q9UHD2 1-729): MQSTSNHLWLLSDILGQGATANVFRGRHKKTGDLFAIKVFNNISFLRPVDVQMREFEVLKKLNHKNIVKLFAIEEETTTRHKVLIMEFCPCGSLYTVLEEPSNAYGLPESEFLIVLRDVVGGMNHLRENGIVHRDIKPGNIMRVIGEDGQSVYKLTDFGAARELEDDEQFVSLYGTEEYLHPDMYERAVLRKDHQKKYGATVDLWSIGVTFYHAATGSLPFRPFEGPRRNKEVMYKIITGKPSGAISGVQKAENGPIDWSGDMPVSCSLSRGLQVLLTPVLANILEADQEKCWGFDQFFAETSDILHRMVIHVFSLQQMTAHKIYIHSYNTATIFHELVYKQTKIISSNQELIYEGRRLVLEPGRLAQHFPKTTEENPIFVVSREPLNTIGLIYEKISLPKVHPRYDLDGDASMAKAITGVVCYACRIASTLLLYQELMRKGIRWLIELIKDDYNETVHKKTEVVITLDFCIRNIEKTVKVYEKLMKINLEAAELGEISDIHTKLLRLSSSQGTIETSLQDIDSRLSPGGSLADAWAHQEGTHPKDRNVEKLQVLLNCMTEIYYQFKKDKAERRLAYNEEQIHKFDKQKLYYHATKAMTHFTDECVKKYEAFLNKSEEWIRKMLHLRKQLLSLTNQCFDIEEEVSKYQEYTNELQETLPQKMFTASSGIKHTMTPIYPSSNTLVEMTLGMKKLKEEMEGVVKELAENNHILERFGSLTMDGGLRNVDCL
The assay is described as follows: TBK1 kinase test, 384-well flashplate. To be noted: enzymatic; 10 μM ATP. As to the method:
The kinase assay is performed as 384-well flashplate assay. 0.6 nM TANK binding kinase (TBK1), 800 nM biotinylated MELK-derived peptide (biotin-Ah-Ah-[…] (SEQ ID NO: 3)) and 10 μM ATP (with 0.25 μCi of 33P-ATP/well) are incubated in a total volume of 50 μl (10 mM MOPS, 10 mM magnesium acetate, 0.1 mM EGTA, 1 mM DTT, 0.02% of Brij35, 0.1% of BSA, pH 7.5) with or without test substance at 30° C. for 120 min. The reaction is stopped using 25 μl of 200 mM EDTA solution, filtered off with suction after 30 min at room temperature, and the wells are washed 3 times with 100 μl of 0.9% NaCl solution. The non-specific proportion of the kinase reaction (blank) is determined using 100 nM staurosporine. Radioactivity is measured in the Topcount. IC50 values are calculated using RS1.

For another assay, the target named is T4, FAK (Homo sapiens, UniProt Q05397).
T4 construct: 2 nM FAK, 400 nM biotinylated substrate
T4 sequence (Q05397 whole entry): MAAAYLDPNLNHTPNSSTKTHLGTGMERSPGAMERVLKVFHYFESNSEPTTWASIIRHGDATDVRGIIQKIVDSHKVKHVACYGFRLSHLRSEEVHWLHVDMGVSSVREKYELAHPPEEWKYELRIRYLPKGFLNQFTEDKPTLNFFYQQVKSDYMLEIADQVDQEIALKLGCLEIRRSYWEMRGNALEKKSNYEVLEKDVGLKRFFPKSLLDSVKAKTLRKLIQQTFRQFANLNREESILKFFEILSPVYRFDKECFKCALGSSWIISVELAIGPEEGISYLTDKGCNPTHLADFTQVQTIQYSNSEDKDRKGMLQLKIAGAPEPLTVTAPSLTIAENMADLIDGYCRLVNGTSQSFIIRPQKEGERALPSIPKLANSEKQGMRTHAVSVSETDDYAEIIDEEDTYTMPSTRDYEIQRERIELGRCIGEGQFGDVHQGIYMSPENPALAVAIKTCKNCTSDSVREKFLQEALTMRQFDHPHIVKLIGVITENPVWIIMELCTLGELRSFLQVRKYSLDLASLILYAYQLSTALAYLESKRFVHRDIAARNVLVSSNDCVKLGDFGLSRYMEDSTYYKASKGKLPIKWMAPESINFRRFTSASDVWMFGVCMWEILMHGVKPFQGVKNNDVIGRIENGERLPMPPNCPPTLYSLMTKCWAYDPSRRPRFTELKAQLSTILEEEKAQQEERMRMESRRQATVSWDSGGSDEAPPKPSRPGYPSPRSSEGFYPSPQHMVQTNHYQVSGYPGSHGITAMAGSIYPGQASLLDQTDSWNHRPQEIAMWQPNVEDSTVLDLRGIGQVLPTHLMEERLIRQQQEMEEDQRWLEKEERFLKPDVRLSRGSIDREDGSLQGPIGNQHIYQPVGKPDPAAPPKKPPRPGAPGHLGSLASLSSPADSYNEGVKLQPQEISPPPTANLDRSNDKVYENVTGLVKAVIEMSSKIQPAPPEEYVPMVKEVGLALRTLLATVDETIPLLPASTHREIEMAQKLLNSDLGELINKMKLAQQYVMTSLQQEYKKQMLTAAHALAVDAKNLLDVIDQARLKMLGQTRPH
Kind of assay: FAK kinase assay (autophosphorylation), 384-well flashplate. Conditions: enzymatic; 1 μM ATP; read-out: IC50 (enzymatic), FAK inhibition. As to the method:
The focal adhesion kinase (FAK) assay is carried out either as a 384-well flashplate assay (for example for Topcount measurements) or as a 384-well image flashplate assay (for LEADseeker measurements). […] The reaction is stopped using 25 μl of 200 mM EDTA. After 30 min at 30° C., the liquid is removed, and each well is washed three times with 100 μl of 0.9% sodium chloride solution. Non-specific reaction is determined in the presence of 1 μM EMD 1076893/0(PF-562271). The radioactivity is measured using Topcount (in the case of the use of flashplates) or using LEADseeker (in the case of the use of image flashplates).

On to `Cn1cc(-c2c(C(F)(F)F)cnc3[nH]c(-c4ccc(F)cc4)cc23)cn1` [A105, 2-(4-Fluorophenyl)-4-(1-methyl-1H-pyrazol-4-yl)-5-trifluoromethyl-1H-pyrrolo[2,3-b]pyridine], for which the IC50 at PDK1 lay in the range of 0.3 to 3 µM.

In the case of `Cn1cc(-c2c(C(F)(F)F)cnc3[nH]c(-c4cccc(C(=O)N5CCOCC5)c4)cc23)cn1` [A95, {3-[4-(1-Methyl-1H-pyrazol-4-yl)-5-trifluoro-methyl-1H-pyrrolo[2,3-b]pyridin-2-yl]phenyl}-morpholin-4-ylmethanone], the IC50 on IKKε was in the range of 3 to 50 µM; in assay [1] it was 0.3 to 3 µM; at PDK1, 0.3 to 3 µM.

For the compound `CN(c1ncccc1-c1nc2ncnc(Nc3ccc(N4CCOCC4)cc3)c2[nH]1)S(C)(=O)=O` [A5, N-Methyl-N-{3-[6-(4-morpholin-4-ylphenyl-amino)-7H-purin-8-yl]pyridin-2-yl}methanesulfonamide], the IC50 on FAK lay within 3 to 50 µM.

Take `CN(c1ncccc1-c1nc2ncnc(Nc3cnn(C)c3)c2[nH]1)S(C)(=O)=O` [A6, N-Methyl-N-{3-[6-(1-methyl-1H-pyrazol-4-yl-amino)-7H-purin-8-yl]pyridin-2-yl}methanesulfonamide]: at FAK, the IC50 was 3 to 50 µM.

`CN(c1ncccc1-c1cc2ccnc(Nc3ccc(N4CCOCC4)cc3)c2[nH]1)S(C)(=O)=O` [A2, N-Methyl-N-{3-[7-(4-morpholin-4-ylphenyl-amino)-1H-pyrrolo[2,3-c]pyridin-2-yl]pyridin-2-yl}methanesulfonamide]: the IC50 on FAK was 3 to 50 µM.

For `Cn1cc(-c2c(C(F)(F)F)cnc3[nH]c(-c4ccc(C(=O)N5CCOCC5)cc4)cc23)cn1` [A96, {4-[4-(1-Methyl-1H-pyrazol-4-yl)-5-trifluoro-methyl-1H-pyrrolo[2,3-b]pyridin-2-yl]phenyl}-morpholin-4-ylmethanone], the values for the IC50 (on IKKε; in assay [1]; against PDK1) were 0.3 to 3 µM, less than 0.3 µM and less than 0.3 µM, respectively.

Regarding `COc1cc(N2CCOCC2)ccc1Nc1ncnc2nc(-c3cccnc3N(C)S(C)(=O)=O)[nH]c12` [A4, N-{3-[6-(2-Methoxy-4-morpholin-4-ylphenyl-amino)-7H-purin-8-yl]pyridin-2-yl}-N-methyl-methanesulfonamide], at FAK, the IC50 lay within 3 to 50 µM.

Regarding `Nc1ccc(-c2c(C(F)(F)F)cnc3[nH]c(-c4ccc(N5CCOCC5)cc4)cc23)cc1` [A100, 4-[2-(4-Morpholin-4-ylphenyl)-5-trifluoromethyl-1H-pyrrolo[2,3-b]pyridin-4-yl]phenylamine], the IC50 in assay [1] was 0.3 to 3 µM.

`Cn1cc(-c2c(C(F)(F)F)cnc3[nH]c(-c4cccc(N5CCOCC5)c4)cc23)cn1` [A104, 4-(1-Methyl-1H-pyrazol-4-yl)-2-(3-morpholin-4-ylphenyl)-5-trifluoromethyl-1H-pyrrolo[2,3-b]-pyridine] returned an IC50 at PDK1 of 0.3 to 3 µM.

On to `CN(c1ncccc1-c1cc2ccnc(Nc3ccc4c(c3)CC(=O)N4)c2[nH]1)S(C)(=O)=O` [A1, N-Methyl-N-{3-[7-(2-oxo-2,3-dihydro-1H-indol-5-ylamino)-1H-pyrrolo-[2,3-c]pyridin-2-yl]-pyridin-2-yl}methanesulfonamide], for which the IC50 at FAK was 3 to 50 µM.

On PDK1, `FC(F)(F)c1cnc2[nH]c(-c3ccc(N4CCOCC4)cc3)cc2c1-c1cn[nH]c1` [A102, 2-(4-Morpholin-4-ylphenyl)-4-(1H-pyrazol-4-yl)-5-trifluoromethyl-1H-pyrrolo[2,3-b]pyridine] showed an IC50 of 3 to 50 µM.

`CN(c1ncccc1-c1cc2ccnc(Nc3ccc4c(c3)CCC(=O)N4)c2[nH]1)S(C)(=O)=O` [A3, N-Methyl-N-{3-[7-(2-oxo-1,2,3,4-tetrahydroquinolin-6-ylamino)-1H-pyrrolo[2,3-c]pyridin-2-yl]pyridin-2-yl}methanesulfonamide]: the half-maximal inhibitory concentration (IC50) on FAK lay in the range of 3 to 50 µM.

Regarding `CN(c1ncccc1-c1nc2ccnc(Nc3ccc4c(c3)CCC(=O)N4)c2[nH]1)S(C)(=O)=O` [A7, N-Methyl-N-{3-[4-(2-oxo-1,2,3,4-tetra-hydroquinolin-6-ylamino)-3H-imidazo[4,5-c]-pyridin-2-yl]pyridin-2-yl}methanesulfonamide], at FAK, the IC50 lay in the range of 3 to 50 µM.
